Literature values, collected in patent US20160000732A1, “ORAL PHARMACEUTICAL COMPOSITIONS OF OSPEMIFENE” (CADILA HEALTHCARE LIMITED, priority 2014, published 2016).

Experiments:
[1] = experimental models and human volunteers; WO 1996/07402, WO 1997/32574
[2] = classical hormonal tests, Kangas 1990

In the case of `OCCOc1ccc(/C(=C(/CCCl)c2ccccc2)c2ccccc2)cc1` [Ospemifene, 2-[4-(4-chloro-1,2-diphenylbut-1-enyl)phenoxy]ethanol], the “total and LDL cholesterol levels” value [1] is listed as “decreases” and the “estrogenic and antiestrogenic effects” value [2] is listed as “relatively weak”.
